pKd: −log10 of the molar value. Counter-ions that a name gives are not always drawn.

Chain of GRB2 (P62993 whole entry): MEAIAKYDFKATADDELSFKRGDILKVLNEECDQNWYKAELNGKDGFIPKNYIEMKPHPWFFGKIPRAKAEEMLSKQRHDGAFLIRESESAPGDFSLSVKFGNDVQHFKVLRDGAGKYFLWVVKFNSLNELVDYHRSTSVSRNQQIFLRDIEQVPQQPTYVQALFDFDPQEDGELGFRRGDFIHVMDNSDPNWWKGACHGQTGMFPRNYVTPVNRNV

One test has as its target GRB2 (Homo sapiens, UniProt P62993). Nature of the test: biochemical. Set-up: Surface plasmon resonance screen of compounds binding to GRB2, KD. The text has this:
To further validate the universal impact of TRKA‐GRB2 axis‐targeted molecular in enhancing CL expression and ameliorating PD, we employed Surface Plasmon Resonance (SPR) technology^[ [58] ^] to screen compounds that bind to GRB2 (Figure 8a). Subsequently, we identified 11 compounds with a KD value at the […] (Table S9, Supporting Information). The viability of SH‐SY5Y cells exposed to mpp+ or 6‐OHDA increased upon treatment with TDF and [compound left out] (Figure S13a and b, Supporting Information). TDF acts as a prodrug of tenofovir, a nucleotide reverse transcriptase inhibitor.^[ [59] ^] On the other hand, [compound left out] is specially formulated for ophthalmological steroid‐based treatments.^[ [60] ^] Considering its oral administration capability, we selected TDF for further research (Figure S13c and d, Supporting Information). TDF facilitated the clearance of overexpressed A53T‐αSyn in SH‐SY5Y cells (Figure S13e and f, Supporting Information) and promoted the interaction between GRB2 and TRKA without affecting the interaction between GRB2 and EGFR in these cells (Figure 8b–d). Treatment with TDF enhanced CRLS1 expression and restored the decreased mitochondrial CL levels caused by A53T‐αSyn in SH‐SY5Y cells. However, knockdown of GRB2 or TRKA in SH‐SY5Y cells attenuated TDF‐induced effect (Figure 8e–g). Moreover, TDF increased TRKA phosphorylation, ERK phosphorylation, and CRLS1 expression, while GW441756 […] these changes (Figure S13g–j, Supporting Information). When SCH772984 was employed, it blocked the ability of TDF to increase ERK phosphorylation and CRLS1 expression (Figure S13k–m, Supporting Information). The impairment of exercise ability was alleviated following TDF (80 mg kg^−1) treatment, resulting in an increase in the distance travelled by A53T‐αSyn‐treated mice (Figure 8h,i). […] Western blotting was performed to evaluate the expression of TRKA and EGFR in cell lysates immunoprecipitated with an anti‐GRB2 antibody (b). Quantification of TRKA levels (c) and EGFR levels (d). e,f) Representative western blot images of CRLS1, GRB2, TRKA in SH‐SY5Y cells treated with TDF (10 µM) or DMSO (0.1%) for 24 h after transfection with Scramble, GRB2 or TRKA siRNAs for 24 h. Quantification of CRLS1 levels (f). g) SH‐SY5Y cells were treated with TDF (10 µM) or DMSO (0.1%) for 24 h after transfection with Scramble, GRB2 or TRKA siRNAs for 24 h. Quantification of mitochondrial CL in SH‐SY5Y cells. Three independent experiments per condition were performed in (b–g). h) Movement track in the open field test. i) Total distance travelled in the open field. j) Time required to descend the pole. k) Time required to fall off the rotarod. (n = 10 mice per group in (h–k). l) Immunohistochemical staining of TH^+ neurons (scale bar = 100 µm). m) Quantification of TH^+ neurons. (n = 3 mice per group in l, m). Data are normalised to those of the DMSO group (c,d) and the Scramble_DMSO group (f). Mean ± standard error of the mean is presented. *p < 0.05, **p < 0.01, ***p < 0.001, ****p < 0.0001, ns, not significant. Student's two‐tailed unpaired t‐test (c,d), two‐way ANOVA with Sidak's multiple comparisons test (f,g,i,j,k and m). Source data are provided in the Source Data file.
By pKd is commonly meant the negative decadic logarithm of the Kd, by convention in mol/L. `O=C(O)c1ccc2nc(-c3cc(Cl)cc(Cl)c3)oc2c1` [tafamidis]: the pKd was 5.43.
Compound `O=C1c2ccccc2-c2n[nH]c3cccc1c23` [SP600125] had a pKd of 6.58.
Still for that read-out and setting: in the case of `NC(=O)N1c2ccccc2CC(=O)c2ccccc21` [Oxcarbazepine] it was 6.62; in that of `COC(c1ccccc1)(c1ccccc1)[C@H](Oc1nc(C)cc(C)n1)C(=O)O` [Ambrisentan], 6.72; in that of `CC(C)N(CCNC(=O)CN1CCCC1=O)C(C)C` [Pramiracetam], 7.00.
The same measure, in the same setting: in the case of `CC(N)C12CC3CC(CC(C3)C1)C2` (centres unmarked) [Rimantadine] it was 6.80.
On the same count and under the same terms, the figure for `CC(C)OC(=O)OCOP(=O)(CO[C@H](C)Cn1cnc2c(N)ncnc21)OCOC(=O)OC(C)C` [TDF, Tenofovir Disoproxil Fumarate] is 7.13.
As for `C/C(=C\CO)CCC[C@H](C)CCC[C@H](C)CCCC(C)C` [Phytol], the pKd is 5.83.
With `CCCC(=O)O[C@]1(C(=O)CCl)[C@@H](C)C[C@H]2[C@@H]3CCC4=CC(=O)C=C[C@]4(C)[C@@]3(F)C(=O)C[C@@]21C` [Clobetasone butyrate], the pKd is 7.00.
The compound `Nc1nc(=O)n([C@@H]2CS[C@H](CO)O2)cc1F` [Emtricitabine] showed a pKd of 7.82.

The target in a further test is T1, Growth Factor Receptor-Bound Protein 2 (GRB2) (Homo sapiens, UniProt P62993).
T1 construct: Recombinant His-tagged GRB2 (pET-28a, E. coli)
T1 sequence (P62993 whole entry): as above
Nature of the test: bio-layer interferometry (ForteBio Octet); supported by thermal shift assay (CETSA) and LiP-SMap. Format: binding. A general note: BLI is a label-free optical method that tracks binding on a fibre tip over time.
Consider `CC(C)=CCC[C@](C)(O)[C@H]1CC[C@]2(C)[C@@H]1[C@H](O)C[C@@H]1[C@@]3(C)CC[C@H](O[C@@H]4O[C@H](CO)[C@@H](O)[C@H](O)[C@H]4O[C@@H]4O[C@H](CO)[C@@H](O)[C@H](O)[C@H]4O)C(C)(C)[C@@H]3CC[C@]12C` [Rg3, Ginsenoside Rg3], for which the pKd was 6.06.

For the origin of these results see article PMC11497058, “Ginsenoside Rg3 Restores Mitochondrial Cardiolipin Homeostasis via GRB2 to Prevent Parkinson's Disease” (Advanced Science, 2024).
